Measured values reported in publication PMC6212638, “In silico identification and biochemical characterization of the human dicarboxylate clamp TPR protein interaction network” (FEBS Open Bio, 2018).

Key:
AIP = biological target: T1, AIP (Homo sapiens, UniProt O00170); experiment: Dot-blot competition assay: HRP-conjugated peptide vs unlabeled peptide on nitrocellulose-immobilized AIP
T1 sequence (O00170 1-330): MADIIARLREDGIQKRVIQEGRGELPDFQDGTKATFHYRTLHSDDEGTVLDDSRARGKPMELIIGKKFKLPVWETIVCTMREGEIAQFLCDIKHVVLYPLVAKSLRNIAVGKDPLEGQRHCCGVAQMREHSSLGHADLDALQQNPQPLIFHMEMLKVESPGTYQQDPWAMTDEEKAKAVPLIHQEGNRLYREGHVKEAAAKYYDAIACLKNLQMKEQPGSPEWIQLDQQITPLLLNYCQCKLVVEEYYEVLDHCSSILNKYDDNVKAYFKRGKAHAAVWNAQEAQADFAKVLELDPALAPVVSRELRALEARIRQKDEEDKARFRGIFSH
Experimental: (§4) Full‐length cDNA clones for respective proteins were obtained from IMAGE consortium (SourceBioScience, Nottingham, UK) and PCR amplified with forward and reverse primers (Table 1) containing overhangs with appropriate restriction sites and cloned into pGEX6 vectors (GE Healthcare, Uppsala, Sweden). Inserts were sequence verified, and the plasmids were transformed into BL21 Escherichia coli strain. Glutathione‐S‐transferase (GST) fusion proteins were purified from 1 L overnight culture after 2 h of induction with 1 mM IPTG. Cells were pelleted, resuspended in 1× PBS and sonicated 3 × 20 s on ice. EDTA and protease inhibitor cocktail were added to prevent proteolysis. The suspension was centrifuged for 30 min at 50 000 g to remove cell debris, and supernatant was loaded onto a 1 mL GSTrap™ 4B column (GE Healthcare). After column washing with 30 mL PBS, GST fusion proteins were eluted with 2.5 mL 10 mM glutathione in PBS. Eluate was passed through a PD‐10 column (GE Healthcare) to remove free glutathione. To prepare GST‐tag‐free proteins, we performed overnight cleavage at 4 °C with PreScission protease (GE Healthcare) followed by passage through a GSTrap column to remove free GST protein. Average yield from 1 L starting culture was 1–5 mg of purified proteins. Protein‐containing fractions were collected, checked with SDS/PAGE and kept at −20 °C.
(§5) Peptides were dissolved in HEPES‐KOH buffer pH 7.2 at concentration of 1 mg·mL^−1 and incubated with equimolar amounts of activated horseradish peroxidase (HRP) (Lightning‐link® HRP labeling kit cat. 701‐004, from Innova Biosciences) for 5 min. Reaction was quenched with 0.1 M Tris/HCl, pH 7.5 for 10 min and the products were passed through PD‐10 columns (GE Healthcare). Dot‐blot experiments were performed using GST‐tag‐free proteins applied to the nitrocellulose membrane. After blocking of membrane with 3% BSA in TBS‐T buffer for 1 h and subsequent wash with TBS‐T, HRP‐conjugated peptides (1 × 500 times dilution) were applied and incubated for 1 h. After subsequent washing (3 × 10 min, TBS‐T), membrane was dried and signals were quantified using a digital Fujifilm LAS3000 imager and LAS3000 software. In competition experiments, increasing concentrations of unlabeled peptides were co‐incubated with peptide–HRP conjugates.
(§6) Each peptide was separately coupled to HRP.

FKBP51 = biological target: T2, FKBP51 (Homo sapiens, UniProt Q13451); experiment: Dot-blot competition assay: HRP-conjugated peptide vs unlabeled peptide on immobilized FKBP51
T2 sequence (Q13451 1-457): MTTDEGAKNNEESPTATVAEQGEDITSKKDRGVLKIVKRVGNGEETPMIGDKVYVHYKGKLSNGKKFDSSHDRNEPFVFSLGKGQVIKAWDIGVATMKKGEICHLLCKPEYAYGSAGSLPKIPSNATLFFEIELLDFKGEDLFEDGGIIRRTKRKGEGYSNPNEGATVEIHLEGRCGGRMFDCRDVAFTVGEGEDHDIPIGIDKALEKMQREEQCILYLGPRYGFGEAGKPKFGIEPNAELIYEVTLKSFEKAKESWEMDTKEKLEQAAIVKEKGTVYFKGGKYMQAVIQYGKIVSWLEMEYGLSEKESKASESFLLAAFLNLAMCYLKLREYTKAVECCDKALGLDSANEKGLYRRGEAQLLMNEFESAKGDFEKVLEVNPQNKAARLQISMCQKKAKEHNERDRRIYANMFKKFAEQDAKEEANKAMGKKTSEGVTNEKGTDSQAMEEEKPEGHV
Experimental: as §4, §5, §6

Tom70 [1] = experiment: Dot-blot assay of Tom70 with HRP-conjugated Hsp90 and Tom20 peptides in presence of unconjugated peptides; type: binding, human; settings: 20 μM unconjugated peptide
Experimental: (§1) In subsequent experiments, non‐fluorescent peptides were used. […] Cell impermeable Hsp90 peptide served as a treatment control.
Figure 6 In vitro and in situ analysis of interactions of 10‐amino‐acid peptides corresponding to C termini of Hsp90 and Tom20 with Tom70. (A) Dot‐blot assay of interactions between Tom70 and HRP‐conjugated 10‐amino‐acid peptides corresponding to C termini of Hsp90 and Tom20 in the presence of 20 μM of unconjugated peptides. (B) Fluorescence imaging of HEK293 cells in the presence of 20 μM of fluorescein‐labeled Hsp90, R9–Hsp90, Tom20 and R9–Tom20 peptides. (C) Inhibition of Tom20–Tom70 and Hsp90–Tom70 interactions with R9–Hsp90 and R9–Tom20 in HEK293 cells measured by PLA. n = 3. Graphs were created and SD values were calculated using PRISM, version 7.02. *P‐value < 0.05 compared to control; comparisons are based on one‐way ANOVA. (D) Inhibition of Tom20–Tom70 and Hsp90–Tom70 interactions with R9–Hsp90 and R9–Tom20 in HEK293 cells measured by mammalian two‐hybrid assay. n = 3. Graphs were created and SD values were calculated using PRISM, version 7.02. *P‐value < 0.05 compared to control; comparisons are based on one‐way ANOVA.

Tom70 [2] = settings: cited from earlier work
Description: First, we tested the ability of unlabeled Hsp90 and Tom20 peptides to compete with their HRP‐labeled analogues for binding to Tom70, the known partner for both Hsp90 and Tom20 proteins.

Hsp90–Tom70 interaction [3] = experiment: Proximity ligation assay (PLA) of Hsp90–Tom70 interaction in HEK293 cells; type: cell-based, human; settings: non-fluorescent peptide, n = 3
Description: (§2) P < 0.05 was considered to be statistically significant. Data are presented as mean ± SEM.
as §1

Tom20–Tom70 interaction [4] = experiment: Mammalian two-hybrid assay (luciferase) of Tom20–Tom70 interaction in HEK293 cells; type: cell-based, human; settings: peptide 20 μM added 4 h after transfection, 48 h, n = 3
Description: (§3) Tom70 sequence was PCR amplified and subcloned into pACT vector of CheckMate™ mammalian two‐hybrid system (Promega, Madison, WI, USA) using SalI/NotI restriction sites, and Hsp90 and Tom20 DNA sequences were PCR amplified and subcloned into pBIND vector using SalI/NotI restriction sites. Tom70‐pACT/Hsp90‐pBIND and Tom70‐pACT/Tom20‐pBIND were co‐transfected with pLuc plasmid in a 1 : 1 : 1 molar ratio into HEK293 cells using Lipofectamine 3000 transfection reagent (Invitrogen, Carlsbad, CA, USA) according to the manufacturer's protocol. Triplicate samples in 96‐well cell culture plates Corning (Tewskbury, MA, USA) were used in each experiment. Hsp90, R9–Hsp90, Tom20 and R9–Tom20 peptides at concentration 20 μM were added 4 h after transfection. HEK293 cells were cultivated for 48 h, washed twice with PBS and lysed with PBS containing 1% Triton X‐100. Luciferase expression was detected using a luciferase assay kit from BioThema (Huddinge, Sweden) on a 96‐well plate reader from Perkin Elmer (Upplands Väsby, Stockholm, Sweden).
as §1

HEK293 cells = settings: N-terminally fluorescein-labeled peptides, 20 μM, fluorescence imaging
Description: as §2

Hsp90–Tom70 interaction [5] = experiment: Mammalian two-hybrid assay (luciferase) of Hsp90–Tom70 interaction in HEK293 cells; type: cell-based, human; settings: peptide 20 μM added 4 h after transfection, 48 h, n = 3
Description: as §3, §1

Tom20–Tom70 interaction [6] = experiment: Proximity ligation assay (PLA) of Tom20–Tom70 interaction in HEK293 cells; type: cell-based, human; settings: non-fluorescent peptide, n = 3
Description: as §2, §1

IC50 (AIP)	IC50 (FKBP51)	competition with HRP-conjugated Hsp90 peptide for Tom70 binding (Tom70 [1])	competition with HRP-conjugated Tom20 peptide for Tom70 binding (Tom70 [1])	Molecule	affinity for Tom70 relative to 10-mer Tom20 peptide (Tom70 [2])	decrease of Hsp90–Tom70 interaction signal (PLA) (Hsp90–Tom70 interaction [3])	inhibition of Tom20–Tom70 interaction (mammalian two-hybrid, luciferase) (Tom20–Tom70 interaction [4])	fluorescein staining of HEK293 cells (peptide translocation into the cells) (HEK293 cells)	inhibition of Hsp90–Tom70 interaction (mammalian two-hybrid, luciferase) (Hsp90–Tom70 interaction [5])	decrease of Tom20–Tom70 interaction signal (PLA) (Tom20–Tom70 interaction [6])
17.8 ± 1.35 µM	18.9 ± 3 µM	effectively competes	effectively competes	CSCC[C@H](NC(=O)[C@H](CCCNC(=N)N)NC(=O)[C@H](CO)NC(=O)[C@H](C)NC(=O)[C@H](CC(=O)O)NC(=O)[C@@H](N)CCC(=O)O)C(=O)N[C@@H](CCC(=O)O)C(=O)N[C@@H](CCC(=O)O)C(=O)N[C@H](C(=O)N[C@@H](CC(=O)O)C(=O)O)C(C)C [Hsp90β]	more than 10 fold					
				H-RRRRRRRRREDASRMEEVD-OH [R9–Hsp90, cell‐permeant analog of the Hsp90 peptide containing a nine‐arginine N‐terminal tag]		approximately 50%	sensitive	resulted in HEK293 cells staining	inhibited	approximately 50%
